Laboratory results from patent publication US20040058976A1, “Ophthalmic compositions for treating ocular hypertension” (priority 2003, published 2004).

System: IOP in Dutch Belted Rabbits
Test: Intraocular pressure (IOP) measurements in conscious Dutch Belted rabbits after topical instillation
Type: in vivo, rabbit
Settings: for 030 min (Δmm Hg) Treated Mean change in IOP / 60 min (Δmm Hg) Treated Mean change in IOP / 120 min (Δmm Hg) Treated Mean change in IOP / 180 min (Δmm Hg) Treated Mean change in IOP / 240 min (Δmm Hg) Treated Mean change in IOP / 30 min (Δ mm Hg) Treated Mean change in IOP: change from Time 0, n = 24
Method: Intraocular pressure measurements (IOP) were performed in conscious adult, pigmented Dutch Belted rabbits (2-4 kg). The animals were allowed free access to standard laboratory diet and tap water, and were housed on a 12 hour light/dark cycle. Seven day rest or washout periods were allowed between assessment of the effects of topically administered treatments on IOP. In order to measure IOP, rabbits were placed in commercially available restraint boxes. Rabbits were conditioned to the restraint boxes on at least two occasions for a period of time ranging up to 6 hours before their first study. On the morning of each experiment, rabbits were placed in restraint boxes for a period of one hour before the first measurement of IOP. IOP was recorded using a pneumatic tonometer (Alcon Applanation Pneumatonograph). Eyelids were gently separated manually and the fingers of the operator were held far enough from the eye to avoid any direct pressure on the eye and surrounding tissues. The membrane of the tonometer was placed on the central part of the cornea. Each measure of IOP lasted 3-5 seconds during which time the animal was completely relaxed. In general, two measures for each eye was sufficient, the first measure being frequently discarded. The tonometer tracing represents the oscillations which correspond to ocular pulsations; the average value of the oscillations corresponded to the level of IOP in mm Hg.
The initial measurement of control IOP was done on a number of rabbits, and 12 rabbits whose control IOP were between 17-25 mm Hg (values of IOP considered to be normal) were selected for study. In each study, the rabbits were separated into two equal subgroups of 6 rabbits each with essentially equivalent control IOPs. Each study consisted of the topical administration of active test substance to one subgroup of 6 rabbits (12 eyes) and vehicle to one subgroup of 6 rabbits (12 eyes); total number of eyes tested per study being 24. In each study, one drop (volume of 50 ul) of active test substance per vehicle was instilled by means of a Hamilton syringe into both eyes of each rabbit at time ) (To). IOPs were re-measured at 30 min, 1 hour, 2 hours, 3 hours and 4 hours after instillation. Results were expressed as mean+/−SD of changes in IOP (mm Hg) from the basal To levels measured just prior to the instillation of active test agent or vehicle. The significance of the data was determined as the difference from the To value using Dunnett's t-test, as well as use of an unpaired Student's t-test for comparisons of changes in IOP between test substance and vehicle at matched time points.
Vehicles consisted of 0.5% […] peanut oil. Formulation of test agents in peanut oil was performed as follows: peanut oil formulations were prepared by dissolving 0.5%, 0.2%, 0.1%, 0.05%, 0.025% or 0.01% (wt./wt) of the test compound in peanut oil. Sonnication was used to obtain complete dissolution of the compound.

[1] = Table 5, 0.1% in peanut oil, topical
[2] = Table 2, 0.1% in peanut oil, topical
[3] = Table 3, 0.1% in peanut oil, topical

## Afletrem
Table 5, 0.1% in peanut oil, topical, 30 min
  030 min (Δmm Hg) Treated Mean change in IOP: −1.54 mm Hg
[1]
  60 min (Δmm Hg) Treated Mean change in IOP: −2.04 mm Hg
  120 min (Δmm Hg) Treated Mean change in IOP: −2.54 mm Hg
  180 min (Δmm Hg) Treated Mean change in IOP: −2.13 mm Hg
  240 min (Δmm Hg) Treated Mean change in IOP: −1.42 mm Hg

## CC(C)(C)NC[C@H](O)COc1nsnc1N1CCOCC1 [Timolol Free Base, timolol]
0.5% (free base equivalent) formulated in peanut oil
  effect on IOP (in words): significant IOP lowering
0.5% in peanut oil, topical 50 ul both eyes, 30 min after instillation
  030 min (Δmm Hg) Treated Mean change in IOP: −2.63 mm Hg
0.5% in peanut oil, topical
  60 min (Δmm Hg) Treated Mean change in IOP: −3.46 mm Hg
  120 min (Δmm Hg) Treated Mean change in IOP: −3.96 mm Hg
  180 min (Δmm Hg) Treated Mean change in IOP: −4.21 mm Hg
  240 min (Δmm Hg) Treated Mean change in IOP: −2.04 mm Hg

## CC(C)(O)[C@H]1O[C@H]2CC[C@@]3(C)[C@@](O)(CC[C@H]4Cc5c([nH]c6ccccc56)[C@@]43C)C2=CC1=O [Paxilline]
Table 2, 0.1% in peanut oil, topical, 30 min
  30 min (Δ mm Hg) Treated Mean change in IOP: −0.79 mm Hg
[2]
  60 min (Δmm Hg) Treated Mean change in IOP: −2.67 mm Hg
  120 min (Δmm Hg) Treated Mean change in IOP: −2.67 mm Hg
  180 min (Δmm Hg) Treated Mean change in IOP: −1.71 mm Hg
  240 min (Δmm Hg) Treated Mean change in IOP: −1.38 mm Hg

## C=C(C)[C@H]1O[C@H]2CC[C@@]3(C)[C@@](O)(CC[C@H]4[C@@H]5OC(C)(C)[C@H]6C[C@@H]7C(=C)Cc8c(Cl)cc9[nH]c(c5c9c8[C@@]76O)[C@@]43C)[C@@]23O[C@H]3[C@H]1O [Penitrem A]
0.1% formulated in peanut oil
  effect on IOP (in words): significant IOP lowering
Table 3, 0.1% in peanut oil, topical, 30 min
  30 min (Δ mm Hg) Treated Mean change in IOP: −1.33 mm Hg
[3]
  60 min (Δmm Hg) Treated Mean change in IOP: −2.08 mm Hg
  120 min (Δmm Hg) Treated Mean change in IOP: −3.91 mm Hg
  180 min (Δmm Hg) Treated Mean change in IOP: −2.96 mm Hg
  240 min (Δmm Hg) Treated Mean change in IOP: −2.46 mm Hg

## COc1ccc2c(c1)c(CC(=O)N(C(=O)NC1CCCCC1)C1CCCCC1)c(C)n2C(=O)c1ccc(Cl)cc1 [Compound 1]
0.2% formulated in peanut oil
  effect on IOP (in words): significant IOP lowering
0.2% in peanut oil, topical, 30 min
  030 min (Δmm Hg) Treated Mean change in IOP: −2.0 mm Hg
0.2% in peanut oil, topical
  60 min (Δmm Hg) Treated Mean change in IOP: −2.58 mm Hg
  120 min (Δmm Hg) Treated Mean change in IOP: −2.96 mm Hg
  180 min (Δmm Hg) Treated Mean change in IOP: −2.42 mm Hg
  240 min (Δmm Hg) Treated Mean change in IOP: −1.58 mm Hg
